The values below come from patent US7291600B2, “Non-T cell binding peptides and their uses” (priority 2002, dated 2007).

“And” between values parts separate entries of the source, which are not always exact repeats. Equal values may be shown once. “Also recorded” adds a separate entry of the source. No end group written: not given here. *: point of attachment. Myristoyl = CCCCCCCCCCCCCC(=O)*

The test system of assay [1] is collagen-induced arthritis (CIA) in Wistar rats. Put plainly: Collagen-induced arthritis (CIA) induced by bovine CII, treated by subcutaneous peptide injection. Format: in vivo. The conditions noted are these: for suppression / alleviation of arthritis in rats: CIA rats, result in words. On the procedure: In the animal experiment protocol of the present invention, collagen-induced arthritis (CIA) in Wistar rats was induced by bovine CII. The non-T cell binding peptides of the present invention were used to treat the arthritis rats.
The experimental arthritis model used in the present invention is collagen-induced arthritis (CIA) which is recognized internationally. The experimental animals used were American Wistar rats, which belong to a blocking colony. They were cultured successfully by Wistar Institute of USA in 1907. They are among the species that were introduced into our country earliest and were used most widely. The rats used in this experiment were all cultured in the animal center of People's Hospital, Peking University (SPF degree II). The rats were cultured in the polyacylene cages cushioned by serrago. The lightness/darkness cycle was maintained as 12 h/12 h. The water and food were freely available to the rats. All the rats used in the experiment were male, 8-10 weeks of age, body weight 180±10 g. All the protocols related to animals in the experiment were in accordance with Chinese Experimental Animal Regulations.
The bovine type II collagen (catalogue number: C11188) was bought from Sigma Co. Ltd. It was dissolved in acetic acid to make a solution with the final concentration of 8 mg/ml. Then the solution was emulsified with complete Freund's adjuvant (Detroit, USA) of the equal volume. 100 μl of the emulsified solution was injected into the footpad of the right limb of each Wistar rat. The injection dose was […]. Thus the arthritis model of Wistar rats was successfully established.
The swelling of metatarsophalangeal joints and interphalangeal joints was found on all the rats about 15 days after the induction of arthritis in Wistar rats with CII. A 0-16 scale was used to evaluate the extent of arthritis. Each of the 4 paws was assigned a score using a 0-4 scale, wherein zero=no joint swelling, 1=swelling of one joint, 2=swelling of 2 joints, 3=swelling of 3 joints, and 4=swelling of 4 joints, which is the swelling of the whole paw. Four paws were scored respectively, and these scores were summed up to give a total score. Beginning 2 days after the immunization, the rats were subjected to an inspection every day until the experiment had been finished.
(§1) The arthritis rats were randomly divided into 4 groups from Day 4 to Day 7 after arthritis induced therein. There were 3 treatment groups and one control group. Each group consisted of 10 rats. Non-T cell binding peptide 267A was subcutaneously injected into the base of tail of each rat every 3 days. The peptides were dissolved in sterile distilled water before injection. The concentrations used in the 3 treatment groups were 100 μg/ml, 500 μg/ml and 1000 μg/ml respectively, 100 μl for each rat, and the control group received sterile distilled water only. The volume change of right feet was measured by water-expelling method every day. Using the aforementioned method of arthritis evaluation, the arthritis scores were given every day based on the number of joints with arthritis. The rats were killed 18 days after treatment. The peripheral blood was collected. The serum concentrations of the respective cytokines were detected using ELISA kits of TNFα and IL-2 (JingMei Biotech Co. Ltd, ShenZhen, P.R.C). In the meanwhile, the joints of the right limb were detached, fixed, decalcified, sectioned and subjected to HE staining.

Assay [2] relates to T cell activation (L57.23 cell with 3.19 cell; Priess cell with 3838 cell). Put plainly: T cell activation assay: antigen presenting cells, peptide and T cell clones co-incubated; IL-2 in supernatant read by CTLL proliferation (MTT). The format is cell-based. To be noted: for inhibition of the T cell activation effects of wild type DRβ1 binding peptide: co-incubated with wild type peptide and T cell activation system, concentration dependent, FIG. 4.

In the next assay the test system is TNFα. Put plainly: TNFα concentration in peripheral blood of CIA rats (ELISA). The format is in vivo, Wistar rats. The protocol: as §1
(ELISA stands for enzyme-linked immunosorbent assay.)

For assay [3], the system named is collagen-induced arthritis (CIA) in Wistar rats. Nature of the assay: Collagen-induced arthritis (CIA) induced by bovine CII, treated by subcutaneous peptide injection. The conditions noted are these: for number of swollen joints, Average: * significantly reduced compared with the control group (p < 0.01), control 6.2. The format is in vivo.
Assay [4] relates to T cell activation (L57.23 cell with 3.19 cell; Priess cell with 3838 cell). Put plainly: T cell activation assay: antigen presenting cells, peptide and T cell clones co-incubated; IL-2 in supernatant read by CTLL proliferation (MTT). The conditions noted are these: FIG. 3; for effect (stimulation) on T cell activation compared with wild type CII peptide: peptide alone with antigen presenting cells and T cells, 48 hours. Format: cell-based. An excerpt: Antigen polypeptides are expressed through antigen presenting cells and activate T cells, resulting in the production of inflammation factors in vivo, and further resulting in the typical pathologic changes of rheumatoid arthritis. In the experiment, the inhibition effects of non-T cell binding peptides on T cell activation were detected by measuring T cell proliferation and Interleukin (IL)-2 level. Two sets of systems of antigen presenting and T cell activation, which are recognized internationally, are used in the research.
Wherein one set of antigen presenting and T cell activation system is composed of L57.23 cell and 3.19 cell, and the other set of system is composed of Priess cell and 3838 cell. By comparing the difference in the effects of said seven non-T cell binding peptides on antigen presenting and T cell activation, non-T cell binding peptides which have significant inhibition effect(s) on T cell activation were screened.
Firstly, the antigen presenting cells, different non-T cell binding peptides (10 μg/ml) and corresponding T cells were added into the reaction system and co-incubated at 37° C. for 48 hours. The supernatant was obtained and added into well-grown IL-2 dependent cells (CTLL). The CTLL cell proliferation was detected by using titrazolium salt method (MTT). Thus the inhibition effects of non-T cell binding peptides on T cell activation were determined.

Setting [5] is: 50 mg group, right hind foot, individual rats.
The mark [6] stands for this setting: Day 8, 10, 12 and 14, three treatment groups 100, 500, 1000 μg/ml, 100 μl s.c. every 3 days.
Where [7] appears, read: 10 mg group, right hind foot, individual rats.

In the case of “FKGEAGPKGE (Myristoyl-FKGEAGPKGE) [267A, amino-terminal linked to myristic acid]”, the “number of swollen joints” value is 4 (2×) and 6 (2×) and 2 and 1 (3×) and 3 (2×) in assay [1] (setting [5]); 2 (2×) and 4 (3×) and 3 (2×) and 1 (2×) and 6 in assay [3] (setting [7]). The “swelling of the right feet” value in assay [1] (3 treatment groups, within the first 2 weeks after treatment) is given as “alleviated”. In addition, the “difference among the 3 treatment groups in right foot swelling ratios and arthritis scores” value in assay [1] (100, 500 and 1000 μg/ml groups, Day 8, 10, 12 and 14) is “no significant difference”. The “suppression / alleviation of arthritis in rats” value in assay [1] is “significant effects; also recorded: significantly suppress arthritis in rats and alleviate the swelling of joints, and shorten the disease course; also recorded: significantly alleviated”. The “arthritis score vs control group” value in assay [1] (setting [6]) is “significantly lower”. In addition, in assay [1] (setting [6]), the “swelling ratio of right feet vs control group” value is recorded as “significantly lower”. In addition, in assay [1] (three treatment groups, Day 8 and Day 16 after treatment, p<0.05), the “remission ratio of CIA vs control group” value was “remission ratio(s) of CIA in the control group are significantly lower than that in the three treatment groups; also recorded: significantly higher”. For the same substance, the “inhibition of the T cell activation effects of wild type DRβ1 binding peptide” value in assay [2] is recorded as “significant effects”. The “concentration of TNFα in peripheral blood vs control group” value was “significantly lower” in the assay with TNFα (100 μg/ml treated group, p<0.05, FIG. 7); “No significant variety” in the assay on TNFα (the other two treatment groups (500 and 1000 μg/ml)). Moreover, the entries for the “number of swollen joints, Average” value in assay [3] (10 mg group average) and in assay [3] (50 mg group average) were 3.15* and 3.25*, respectively. Besides, the Hind foot volume was 1.2 ml (2×) and 1.5 ml and 1.4 ml and 1.3 ml (5×) and 1.1 ml in assay [3] (setting [7]); 1.4 ml (5×) and 1.7 ml and 1.3 ml and 1.1 ml and 1.6 ml (2×) in assay [3] (setting [5]).
In the case of “FKGEGAGAGE (Myristoyl-FKGEGAGAGE) [Mut 267-270, amino-terminal linked to myristic acid]”, the “effect (stimulation) on T cell activation compared with wild type CII peptide” value (“effect … compared with wild type CII peptide” for short) in assay [4] is “none of polypeptides Mut 267-270, Mut 268-270, Mut 269-270, 269A and 270A has significant effect on T cell activation”. Besides, in assay [1], the “suppression / alleviation of arthritis in rats” value is “significant effects”. In addition, in assay [2], the “inhibition of the T cell activation effects of wild type DRβ1 binding peptide” value was “significant effects”.
For the substance “FKGEQAGAGE (Myristoyl-FKGEQAGAGE) [Mut 268-270, amino-terminal linked to myristic acid]”, the “effect … compared with wild type CII peptide” value in assay [4] is “none of polypeptides Mut 267-270, Mut 268-270, Mut 269-270, 269A and 270A has significant effect on T cell activation”.
For the substance “FKGEQGAAGE (Myristoyl-FKGEQGAAGE) [Mut 269-270, amino-terminal linked to myristic acid]”, the “effect … compared with wild type CII peptide” value in assay [4] is “none of polypeptides Mut 267-270, Mut 268-270, Mut 269-270, 269A and 270A has significant effect on T cell activation”.
“FKGEQGAKGE (Myristoyl-FKGEQGAKGE) [269A, amino-terminal linked to myristic acid]”: the “effect … compared with wild type CII peptide” value in assay [4] is “none of polypeptides Mut 267-270, Mut 268-270, Mut 269-270, 269A and 270A has significant effect on T cell activation”.
On the same count and under the same terms, for “FKGEQGPAGE (Myristoyl-FKGEQGPAGE) [270A, amino-terminal linked to myristic acid]” the value was “none of polypeptides Mut 267-270, Mut 268-270, Mut 269-270, 269A and 270A has significant effect on T cell activation”.
In the case of “wild type DRβ1 binding peptide: wild type CII263-272 polypeptide (F K G E Q G P K G E), contains the antigen epitope of Collagen type II (FKGEQGPKGE) [reference compound]”, the “concentration of IL-2 in the supernatant” value in assay [4] (non-T cell binding peptides compared with wild type peptide, p<0.01) is given as “high concentration of IL-2”. Further, the “stimulation of T cell proliferation” value in assay [2] (at 400, 200, 80, 40 and 20 μg/ml) was “able to stimulate T cell proliferation”.
